The target of series [1] is T1, pancreatic lipase (PL; 3.1.1.3) (Homo sapiens, UniProt P16233).
T1 sequence (P16233 17-465): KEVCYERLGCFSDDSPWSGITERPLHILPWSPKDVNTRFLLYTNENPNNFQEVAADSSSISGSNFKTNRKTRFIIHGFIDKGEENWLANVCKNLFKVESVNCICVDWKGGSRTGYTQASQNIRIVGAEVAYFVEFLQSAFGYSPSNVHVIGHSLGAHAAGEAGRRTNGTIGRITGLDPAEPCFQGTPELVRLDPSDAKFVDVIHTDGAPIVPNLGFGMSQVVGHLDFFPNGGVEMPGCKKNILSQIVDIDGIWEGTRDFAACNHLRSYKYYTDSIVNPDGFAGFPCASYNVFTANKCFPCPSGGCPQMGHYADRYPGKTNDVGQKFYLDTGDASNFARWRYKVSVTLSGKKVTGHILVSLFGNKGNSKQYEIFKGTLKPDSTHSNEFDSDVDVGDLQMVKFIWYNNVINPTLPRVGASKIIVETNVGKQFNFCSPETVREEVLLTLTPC
As to the kind of experiment: lipase activity, biochemical test with radioactive triolein substrate. To be noted: 1000 nM; 2 hours at 37 °C. The protocol:
In the present example, the effect of HMA extract was evaluated on the lipase activity with a biochemical test using a radioactive substrate. The lipase catalyzes the hydrolysis of glycerol-ester (glycerides) and long chain fatty acid emulsions. The substrate of this enzyme is not a simple molecule but a non-aqueous phase of aggregated lipids. The usual method to quantify the lipase activity is titration (pH variation) which is not often efficient for the testing of inhibitory compounds and generates several artifacts. An alternative and more efficient method (followed in the present example) was to use a radioactive complex lipid substrate.
The quantification of lipase activity was undertaken as follows: Samples of HMA extract to be analyzed were prepared from a stock solution containing 5% (w/v) in glycerol/ultra-pure water (60/40).
The compound and the reference (Orlistat tested at 1000 nM) were incubated for 2 hours at 37 °C in presence of the enzyme, pancreatic lipase (PL; 3.1.1.3) at 125 U/ml and the radioactive substrate (3.34 µCi/tube, stable emulsion of triolein at 5.25 mM corresponding to a mix of cold and titriated triolein). A negative control was performed by incubating the substrate alone, without enzyme in the reaction mix, in order to determine the background signal. […]
(§1) Raw data were analyzed using Microsoft Excel® software. […]

Series [2] in a line: acellular lipid peroxidation, TBARS production (hemin-induced, phosphatidylcholine micelles). The note with it: 10 µM, hemin 5 µM, 1 hour at 37 °C. The series is classed as biochemical. The procedure: In the present example, the effect of HMA extract was evaluated on oxidative stress. More specifically, its protective effect against lipid peroxidation (acellular reaction) was evaluated by measuring the production of thiobarbituric acid reactive substances (TBARS). The quantification of anti-oxidant capacity was undertaken as follows: Samples of HMA extract to be analyzed were prepared from a stock solution containing 5% (w/v) in glycerol/ultra-pure water (60/40). […] Additional control conditions were also included in the experimental design: without inducer (non-activated condition), 'Interference' controls (test compound added to the reactive medium without micelles of lipids to assess a potential auto-fluorescence of compounds) and 'Quenching' controls (test compound added at the end of reaction to check for potential quenching of the signal directly by the test compounds). […] TBARS thus produced were then evaluated by fluorescence measurement (λex 540 nm; λem 590 nm). The results are expressed as TBARS equivalent, representing the antioxidant activity expressed as Trolox equivalent of the test compound. Raw data were analyzed using Microsoft Excel® software. […]

Series [3] relates to PBMCs. As to the kind of experiment: viability assay (alamarBlue) on LPS-stimulated PBMCs. The series is classed as cell-based, human. To be noted: 10^-7 M. The procedure:
(§2) PBMCs were isolated from whole blood, seeded in 96-well plates and incubated in culture medium for 1 hour. The medium was then replaced by culture medium containing or not (stimulated control) the test compound or the reference compound, i.e., dexamethasone tested at 10^-7 M, and cells were pre-incubated for 1 hour. The inflammatory inducer, LPS (1 µg/ml) was then added and cells were incubated for 24 hours. A non-stimulated control was also performed in parallel. All experimental conditions were performed in n=3.
After incubation, the culture supernatants were collected in order to quantify IL-8, IL-10 and IL-12 release. A viability assay was performed on cells according to a standard alamarBlue® protocol.
After treatment, the cells were incubated with alamarBlue® reduced in resorufin via the mitochondrial reduction reactions of metabolically active cells. This transformation is proportional to the number of living cells. The optical density (OD) at 570nm was recorded using a microplate reader (VERSAmax, Molecular Devices).
(Resazurin is reduced to fluorescent resorufin, in cell work by metabolically active cells.)

Series [4] concerns IL-10 release by LPS-stimulated PBMCs. Kind of series: IL-10 release by LPS-stimulated PBMCs (ELISA). Format: cell-based, human. To be noted: 10^-7 M, LPS 1 µg/ml, 24 hours. The procedure: (§3) In the present example, the potential anti-inflammatory effect of HMA extract was investigated in human peripheral blood mononuclear cells (PBMCs) under stimulated conditions. More precisely, the effect of the test compound was evaluated on IL-8, IL-10 and IL-12 release by LPS-stimulated PBMCs using specific ELISA kits.
(§4) The quantification of anti-inflammatory effects was undertaken as follows: Samples of HMA extract to be analyzed were prepared from a stock solution containing 5% (w/v) in glycerol/ultra-pure water (60/40).
as §2
(§5) After incubation, the culture supernatants were collected in order to quantify IL-8, IL-10 and IL-12 release. […]
(§6) The quantity of IL-8, IL-10 and IL-12 released in the culture supernatants was measured using specific ELISA kits according to the supplier's instructions.
as §1
In general terms: ELISA stands for enzyme-linked immunosorbent assay.

The subject of series [5] is IL-12 release by LPS-stimulated PBMCs. Kind of series: IL-12 release by LPS-stimulated PBMCs (ELISA). Format: cell-based, human. To be noted: 10^-7 M, LPS 1 µg/ml. The protocol:
as §3, §4, §2, §5, §6, §1

Series [6] has as its system IL-8 release by LPS-stimulated PBMCs. Kind of series: IL-8 release by LPS-stimulated PBMCs (ELISA). The note with it: Homo sapiens, PBMC; 10^-7 M; LPS 1 µg/ml, 24 hours. Format: cell-based. The protocol:
as §3, §4, §2, §5, §6, §1

A word on the inhibition: it is the drop in the measured response relative to a control, in per cent. Consider `CCCCCCCCCCC[C@@H](C[C@@H]1OC(=O)[C@H]1CCCCCC)OC(=O)[C@H](CC(C)C)NC=O` [Orlistat], for which, in series [1], the inhibition at 1 µM turned out to be 41%.
Broadly, the % Inhibition is the share of the control response that was lost under treatment. Low readings indicate a weak effect, high ones a strong effect. For `Cc1c(C)c2c(c(C)c1O)CCC(C)(C(=O)O)O2` (centres unmarked) [Trolox, 6-hydroxy-2,5,7,8-tetramethylchroman-2-carboxylic acid], the “% Inhibition” value in series [2] is 72%.
In the case of `C[C@@H]1C[C@H]2[C@@H]3CCC4=CC(=O)C=C[C@]4(C)[C@@]3(F)[C@@H](O)C[C@]2(C)[C@@]1(O)C(=O)CO` [Dexamethasone, dexamethasone], the “Viability % stimulated control” value in series [3] was found to be 88 % stimulated control. The “% Inhibition (I) or % stimulation (S)” value in series [4] was 32 (I) %. For the same molecule, the inhibition at 0.1 µM came out at 32% in series [4] (Homo sapiens, PBMC, inhibition (I), read-out: % Inhibition (I) or % stimulation (S)); 100% in series [5] (Homo sapiens, PBMC, 24 h); 72% in series [6]. Also, the “% Inhibition” value in series [5] (24 hours) was more than 100%.

These data come from patent EP3445382B1, “HARUNGANA MADAGASCARIENSIS LEAF EXTRACT FOR USE IN THE TREATMENT AND/OR PREVENTION OF ACNE” (Société d'Exploitation de Produits pour les Industries …, priority 2016, dated 2017).
